This data set is described as follows: High-throughput Equilibrium Solubility measurement. It counts as physicochemical. Particulars: phosphate buffer, pH 6.8.

The structures appear in SMILES notation. Values after ≈ are worked out from the molar mass of the structure shown.

In turn, `N#Cc1c[nH]c2c(C(=O)N3CCN(CCc4ccc(F)cc4)CC3)cccc12` [compound 3, pruvanserin] showed a solubility of 17 µM (≈ 6.4 µg/mL).

As usually defined, the solubility is the concentration that dissolves in the medium under given conditions. The low end stands for little dissolved substance, the high end for much dissolved substance.

The values are drawn from publication PMC8513920 (Chemical Science, 2021).
